Experimental findings from ChEMBL document CHEMBL1201862, “PubChem BioAssay data set” (2004) are described below.

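Cultured in 96-well plates, cells were exposed to test compound for 48 hours across five concentrations. At the GI50, growth is halved.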 The source made the active and inactive calls. No stated cut-off is given here; in the data, active = GI50 up to about 1.1 µM and inactive = higher.

Common to all, as to experiment: inhibition of tumour cell growth, NCI panel, 48 h
Experiment [1] concerns MDA-MB-231.
Experiment [2] deals with DU-145.
The test system of experiment [3] is NCI-H226.
Experiment [4] deals with BT-549.
For experiment [5], the system named is 786-0.
In experiment [6] the test system is SK-OV-3.
For experiment [7], the system named is COLO 205.
The test system of experiment [8] is K562.
In experiment [9] the test system is M14.
The test system of experiment [10] is MDA-MB-435.
The test system of experiment [11] is RPMI-8226.
Experiment [12] concerns UACC-257.
For experiment [13], the system named is Hs-578T.
Experiment [14] deals with IGROV-1.
Experiment [15] relates to HCT-15.
Experiment [16] relates to CAKI-1.
Experiment [17] has as its system SF-268.
Experiment [18] has as its system NCI/ADR-RES.
Experiment [19] concerns RXF 393.

`C=C1CC(Cn2ccc(=O)[nH]c2=O)(c2ccc(Cl)cc2)OC1=O` (centres undefined): the GI50 was 14.6 µM (inactive) in [1]; 9.53 µM (inactive) in experiment [2]; 22.9 µM (inactive) in experiment [3]; 4.1 µM (inactive) in [4]; 2.04 µM (inactive) in [5]; 15 µM (inactive) in [6]. Moreover, the GI50 in [7] was 1.73 µM (inactive); in experiment [8], 0.631 µM (active); in [9], 3.56 µM (inactive); in [10], 8.15 µM (inactive); in experiment [11], 1.28 µM (inactive); in experiment [12] it was 3.58 µM (inactive). For the same molecule, the GI50 in experiment [13] is 10.5 µM (inactive); in experiment [14] it was 2.86 µM (inactive); in [15], 2.45 µM; in experiment [16] it was 2.42 µM (inactive); in [17], 19.8 µM (inactive); in experiment [18] it was 4.56 µM (inactive).
Turning to `N=C(N)C1CN(CCc2c[nH]cn2)C(=O)NC1=O` (centres undefined), the GI50 in experiment [19], in experiment [2], in experiment [4], in [5], in experiment [6] and in experiment [7] was > 100 µM (inactive) each time. Besides, the GI50 in [9], in experiment [10], in experiment [11], in experiment [12], in experiment [13] and in experiment [14] was > 100 µM (inactive) in each case. Besides, the values for the GI50 in experiment [15], in experiment [16] and in experiment [17] were > 100 µM, > 100 µM (inactive) and > 100 µM (inactive), respectively.
Regarding `CSc1nc(=S)[nH]c2c1c(C)nn2-c1ccccc1`, the GI50 in experiment [1] is 22.2 µM (inactive); in experiment [19], 26.2 µM (inactive); in [2] it was 15.6 µM (inactive); in [3], 17.7 µM (inactive); in experiment [4], 19.7 µM (inactive); in [5], 24.3 µM (inactive). The GI50 in experiment [6] was 24.8 µM (inactive); in experiment [7], 20.1 µM (inactive); in experiment [8], 16.6 µM (inactive); in [9], 40.5 µM (inactive); in experiment [10], 40.5 µM (inactive); in experiment [11], 6.73 µM (inactive). Besides, the GI50 is 20.5 µM (inactive) in [12]; 38 µM (inactive) in experiment [13]; 20.3 µM in [15]; 21.2 µM (inactive) in experiment [16]; 22.1 µM (inactive) in experiment [17].
`COc1cccc(/C=C2\CCCc3ccccc3C2=O)c1`: the GI50 is 13.8 µM (inactive) in experiment [1]; 19.1 µM (inactive) in experiment [2]; 18.8 µM (inactive) in experiment [3]; 16.2 µM (inactive) in experiment [4]; 13.1 µM (inactive) in experiment [5]; 30.5 µM (inactive) in experiment [6]. Further, the GI50 was 17.8 µM (inactive) in experiment [7]; 16.1 µM (inactive) in [8]; 13 µM (inactive) in experiment [9]; 10.1 µM (inactive) in experiment [10]; 6.35 µM (inactive) in experiment [11]; 15.2 µM (inactive) in experiment [12]. For the same molecule, the GI50 in [13] was 17.9 µM (inactive); in experiment [14], 17.9 µM (inactive); in [15], 10.9 µM; in experiment [16] it was 23.4 µM (inactive); in [17] it was 10 µM (inactive); in experiment [18], 17.9 µM (inactive).
As to `CC[C@H]1C=CCC[C@@]2(C[C@@H]3CC[C@H]4[C@H](C(=O)OCCCCCCCCCCCCCCCC(=O)N(CCCN)C[C@@H](O)CCN)[C@]5(CCC[C@@H](C)O5)NC(=[N+]34)N2)O1`, the GI50 in experiment [19] is 1.6 µM (inactive); in experiment [2], 1.1 µM (active); in [3], 1.04 µM (active); in experiment [4] it was 1.71 µM (inactive); in experiment [5], 0.543 µM (active); in experiment [6] it was 1.65 µM (inactive). For the same molecule, the GI50 in experiment [7] is 0.342 µM (active); in experiment [8] it was 0.256 µM (active); in [9], 0.231 µM (active); in experiment [10] it was 0.338 µM (active); in experiment [11] it was 0.177 µM (active); in experiment [12] it was 0.604 µM (active). Further, the GI50 in experiment [13] was 1.59 µM (inactive); in experiment [14], 0.615 µM (active); in [15], 0.723 µM; in experiment [16] it was 0.532 µM (active); in experiment [17], 1.11 µM (active); in experiment [18], 1.63 µM (inactive).
Take `Cc1cccc(NS(=O)(=O)c2ccc(/N=N/c3c(O)c(C(=O)O)cc4ccccc34)cc2)n1`: the GI50 in experiment [1], in experiment [19], in experiment [3], in experiment [4], in [5] and in [6] was > 100 µM (inactive) each time. For the same molecule, the GI50 in experiment [7], in experiment [8], in experiment [9], in experiment [10], in experiment [11] and in experiment [12] was > 100 µM (inactive) throughout. Also, the GI50 in experiment [13] was > 100 µM (inactive); in experiment [14], > 100 µM (inactive); in [15], > 100 µM; in experiment [16], > 100 µM (inactive); in [17] it was > 100 µM (inactive); in experiment [18] it was > 100 µM (inactive).
Take `CCOP(=O)(/C=C\n1cnc2c(=O)n(C(C)=O)c(N)nc21)OCC`: the GI50 was 69.7 µM (inactive) in experiment [1]; > 100 µM (inactive) in experiment [19]; > 100 µM (inactive) in experiment [2]; > 100 µM (inactive) in experiment [3]; > 100 µM (inactive) in [4]; > 100 µM (inactive) in experiment [5]. Also, the GI50 in [6], in experiment [7], in experiment [8], in experiment [9], in experiment [10] and in [11] was > 100 µM (inactive) throughout. In addition, the GI50 is > 100 µM (inactive) in experiment [12]; > 100 µM (inactive) in [14]; > 100 µM in experiment [15]; > 100 µM (inactive) in experiment [16]; > 100 µM (inactive) in experiment [18].
Consider `CCC1(COC(NC(=O)c2ccccc2)(C(F)(F)F)C(F)(F)F)COC1`, for which the GI50 in [19], in experiment [4], in [5], in experiment [6], in experiment [7] and in [8] was > 100 µM (inactive) in each case. The GI50 in experiment [9], in [10], in [11], in experiment [12], in experiment [13] and in [14] was > 100 µM (inactive) in each case. In addition, the GI50 in experiment [15] was > 100 µM; in experiment [16], > 100 µM (inactive); in [17] it was > 100 µM (inactive); in experiment [18], > 100 µM (inactive).
As to `CCCCCN1C(=O)C(Cc2ccccc2)N=C(c2ccc(O)cc2)c2cc(Cl)ccc21` (centres undefined), the GI50 in [1] was 17.3 µM (inactive); in experiment [2], 15.8 µM (inactive); in experiment [3], 7.43 µM (inactive); in experiment [4], 17.4 µM (inactive); in experiment [5], 13.6 µM (inactive); in experiment [6] it was 18.6 µM (inactive). Moreover, the GI50 is 2.96 µM (inactive) in [7]; 3.23 µM (inactive) in experiment [8]; 11.2 µM (inactive) in [9]; 9.53 µM (inactive) in experiment [10]; 2.9 µM (inactive) in experiment [11]; 7.66 µM (inactive) in experiment [12]. Moreover, the GI50 is 7.53 µM (inactive) in [13]; 6.73 µM (inactive) in [14]; 7.67 µM in [15]; 13.8 µM (inactive) in [16]; 8.73 µM (inactive) in [17]; 8.11 µM (inactive) in experiment [18].
As for `CCCCCC#CCOC(=O)C(=[N+]=[N-])P(=O)(c1ccccc1)c1ccccc1`, the GI50 in experiment [1], in experiment [19], in experiment [2], in experiment [3], in experiment [4] and in experiment [5] was > 10 µM (inactive) in each case. In addition, the GI50 in experiment [6] is > 10 µM (inactive); in experiment [8], > 10 µM (inactive); in experiment [9] it was > 10 µM (inactive); in experiment [10] it was > 10 µM (inactive); in experiment [11], 9.84 µM (inactive); in experiment [12], > 10 µM (inactive). The GI50 is > 10 µM (inactive) in [13], > 10 µM (inactive) in experiment [14], > 10 µM in experiment [15] and > 10 µM (inactive) in [17].
With `CC1=CCCC(C)(O)C2CC(CCC3(C)OC3CC1)C(C)C(=O)O2` (centres undefined), the GI50 in [1], in experiment [2], in experiment [3], in experiment [4], in [5] and in experiment [6] was > 100 µM (inactive) each time. The GI50 in experiment [7], in [8], in [9], in experiment [10], in experiment [11] and in [12] was > 100 µM (inactive) each time. Moreover, the GI50 in experiment [13] is > 100 µM (inactive); in experiment [14] it was > 100 µM (inactive); in experiment [15] it was > 100 µM; in experiment [16], > 100 µM (inactive); in experiment [17], > 100 µM (inactive); in experiment [18], > 100 µM (inactive).
Take `CN(C)CCNC(=O)c1ccc2nc3c(nc2c1)C(=O)c1ccccc1-3`: the GI50 is 85.5 µM (inactive) in [19]; > 100 µM (inactive) in [2]; 21.7 µM (inactive) in [4]; 31.8 µM (inactive) in experiment [5]; > 100 µM (inactive) in experiment [6]; 34.6 µM (inactive) in [7]. In addition, the GI50 is > 100 µM (inactive) in experiment [9]; 26 µM (inactive) in experiment [10]; 26.1 µM (inactive) in [11]; 76.6 µM (inactive) in experiment [12]; 52.2 µM (inactive) in experiment [13]; 38.9 µM (inactive) in experiment [14]. Further, the values for the GI50 in [15], in [16] and in experiment [17] were 31.4 µM, > 100 µM (inactive) and 33.5 µM (inactive), respectively.
